{
  "source": "patent EP3181574A1",
  "about": "“HIGHLY SOLUBLE REBAUDIOSIDE D” (Purecircle USA, priority 2010, dated 2012)",
  "key": {"[1]": {"conditions": "water, room temperature; cited from earlier work"}, "[2]": {"conditions": "cited from earlier work"}, "[3]": {"assay": "Solubility of Rebaudioside D (crystalline vs amorphous) in water", "assay_type": "physicochemical", "conditions": "for solubility: room temperature, % = grams soluble in 100 grams of solvent", "experimental": "Hereinafter, unless specified otherwise the solubility of material is determined in RO (reverse osmosis) water at room temperature. Where the solubility is expressed as \"%\" it to be understood as number of grams of material soluble in 100 grams of solvent.\n100g of crystalline Rebaudioside D, produced by PureCircle Sdn Bhd, with 98.1% purity (on anhydrous basis) was dissolved in 500 mL aqueous ethanol, containing 50% (vol.) ethanol. The solution was maintained at 50°C and dried using a YC-015 laboratory spray drier (Shanghai Pilotech Instrument & Equipment Co. Ltd., China) operating at 175°C inlet and 100°C outlet temperatures. […]"}, "[4]": {"conditions": "50°C, solution crystallized after cooling down to room temperature (20°C)"}, "[5]": {"conditions": "100°C, solution crystallized after cooling down to room temperature (20°C)"}},
  "note": "Where two headings read alike, the source gives them in different places.",
  "data": [
    {"smiles": "C=C1C[C@@]23CC[C@H]4[C@@](C)(CCC[C@@]4(C)C(=O)O[C@@H]4O[C@H](CO)[C@@H](O)[C@H](O)[C@H]4O)[C@@H]2CC[C@]1(O[C@@H]1O[C@H](CO)[C@@H](O)[C@H](O[C@@H]2O[C@H](CO)[C@@H](O)[C@H](O)[C@H]2O)[C@H]1O[C@@H]1O[C@H](CO)[C@@H](O)[C@H](O)[C@H]1O)C3", "note": "[Rebaudioside A]", "values": [
      {"measurement": "thermodynamic equilibrium solubility", "setting": "[1]", "value": 0.8, "unit": "%"}
    ]},
    {"smiles": "C=C1C[C@@]23CC[C@H]4[C@@](C)(CCC[C@@]4(C)C(=O)O[C@@H]4O[C@H](CO)[C@@H](O)[C@H](O)[C@H]4O)[C@@H]2CC[C@]1(O[C@@H]1O[C@H](CO)[C@@H](O)[C@H](O[C@@H]2O[C@H](CO)[C@@H](O)[C@H](O)[C@H]2O)[C@H]1O[C@@H]1O[C@H](CO)[C@@H](O)[C@H](O)[C@H]1O)C3", "note": "[Form 1 Hydrate, Rebaudioside A]", "values": [
      {"measurement": "Rate of dissolution in H2O at 25°C", "setting": "[2]; in 60 minutes", "value": "Very low (<0.2% in 60 minutes)"}
    ]},
    {"smiles": "C=C1C[C@@]23CC[C@H]4[C@@](C)(CCC[C@@]4(C)C(=O)O[C@@H]4O[C@H](CO)[C@@H](O)[C@H](O)[C@H]4O[C@@H]4O[C@H](CO)[C@@H](O)[C@H](O)[C@H]4O)[C@@H]2CC[C@]1(O[C@@H]1O[C@H](CO)[C@@H](O)[C@H](O[C@@H]2O[C@H](CO)[C@@H](O)[C@H](O)[C@H]2O)[C@H]1O[C@@H]1O[C@H](CO)[C@@H](O)[C@H](O)[C@H]1O)C3", "note": "[amorphous Reb D, Rebaudioside D]", "values": [
      {"measurement": "Solubility, % (in water)", "setting": "[3]; 20°C", "value": 0.1, "unit": "%"},
      {"measurement": "Solubility, % (in water)", "setting": "[3]; [4]", "value": 0.5, "unit": "%"},
      {"measurement": "Solubility, % (in water)", "setting": "[3]; [5]", "value": 1.1, "unit": "%"},
      {"measurement": "solubility", "setting": "[3]; water", "value": 0.2, "unit": "%"}
    ]},
    {"smiles": "C=C1C[C@@]23CC[C@H]4[C@@](C)(CCC[C@@]4(C)C(=O)O[C@@H]4O[C@H](CO)[C@@H](O)[C@H](O)[C@H]4O[C@@H]4O[C@H](CO)[C@@H](O)[C@H](O)[C@H]4O)[C@@H]2CC[C@]1(O[C@@H]1O[C@H](CO)[C@@H](O)[C@H](O[C@@H]2O[C@H](CO)[C@@H](O)[C@H](O)[C@H]2O)[C@H]1O[C@@H]1O[C@H](CO)[C@@H](O)[C@H](O)[C@H]1O)C3", "note": "[Rebaudioside D]", "values": [
      {"measurement": "solubility when heat is applied", "setting": "[3]; water, heated, upon cooling to room temperature crystallizes back out from the solution", "value": "up to 0.5%"},
      {"measurement": "solubility", "setting": "[3]; water", "value": 0.05, "unit": "%"}
    ]},
    {"smiles": "C=C1C[C@@]23CC[C@H]4[C@@](C)(CCC[C@@]4(C)C(=O)O[C@@H]4O[C@H](CO)[C@@H](O)[C@H](O)[C@H]4O)[C@@H]2CC[C@]1(O[C@@H]1O[C@H](CO)[C@@H](O)[C@H](O[C@@H]2O[C@H](CO)[C@@H](O)[C@H](O)[C@H]2O)[C@H]1O[C@@H]1O[C@H](CO)[C@@H](O)[C@H](O)[C@H]1O)C3", "note": "[Form 2 Anhydrous, Rebaudioside A]", "values": [
      {"measurement": "Rate of dissolution in H2O at 25°C", "setting": "[2]; in 5 minutes", "value": "Intermediate (<30% in 5 minutes)"}
    ]},
    {"smiles": "C=C1C[C@@]23CC[C@H]4[C@@](C)(CCC[C@@]4(C)C(=O)O[C@@H]4O[C@H](CO)[C@@H](O)[C@H](O)[C@H]4O)[C@@H]2CC[C@]1(O[C@@H]1O[C@H](CO)[C@@H](O)[C@H](O[C@@H]2O[C@H](CO)[C@@H](O)[C@H](O)[C@H]2O)[C@H]1O[C@@H]1O[C@H](CO)[C@@H](O)[C@H](O)[C@H]1O)C3", "note": "[Form 4 Amorphous, Rebaudioside A]", "values": [
      {"measurement": "Rate of dissolution in H2O at 25°C", "setting": "[2]; in 5 minutes", "value": "High (>35% in 5 minutes)"}
    ]},
    {"smiles": "C=C1C[C@@]23CC[C@H]4[C@@](C)(CCC[C@@]4(C)C(=O)O[C@@H]4O[C@H](CO)[C@@H](O)[C@H](O)[C@H]4O[C@@H]4O[C@H](CO)[C@@H](O)[C@H](O)[C@H]4O)[C@@H]2CC[C@]1(O[C@@H]1O[C@H](CO)[C@@H](O)[C@H](O[C@@H]2O[C@H](CO)[C@@H](O)[C@H](O)[C@H]2O)[C@H]1O[C@@H]1O[C@H](CO)[C@@H](O)[C@H](O)[C@H]1O)C3", "note": "[crystalline Rebaudioside D, Rebaudioside D]", "values": [
      {"measurement": "Solubility, % (in water)", "setting": "[3]; 20°C", "value": 0.05, "unit": "%"},
      {"measurement": "Solubility, % (in water)", "setting": "[3]; [4]", "value": 0.2, "unit": "%"},
      {"measurement": "Solubility, % (in water)", "setting": "[3]; [5]", "value": 0.5, "unit": "%"},
      {"measurement": "solubility", "setting": "[3]; water", "value": 0.05, "unit": "%"}
    ]},
    {"smiles": "C=C1C[C@@]23CC[C@H]4[C@@](C)(CCC[C@@]4(C)C(=O)O[C@@H]4O[C@H](CO)[C@@H](O)[C@H](O)[C@H]4O)[C@@H]2CC[C@]1(O[C@@H]1O[C@H](CO)[C@@H](O)[C@H](O[C@@H]2O[C@H](CO)[C@@H](O)[C@H](O)[C@H]2O)[C@H]1O[C@@H]1O[C@H](CO)[C@@H](O)[C@H](O)[C@H]1O)C3", "note": "[Form 3 Solvate, Rebaudioside A]", "values": [
      {"measurement": "Rate of dissolution in H2O at 25°C", "setting": "[2]; in 5 minutes", "value": "High (>30% in 5 minutes)"}
    ]}
  ]
}
